Experimental data reported in paper PMC12024912, “Druggability Studies of Benzene Sulfonamide Substituted Diarylamide (E3) as a Novel Diuretic” (Biomedicines, 2025).
Where two headings read alike, the source gives them in different places.

How the values were obtained:
[1] = Pharmacokinetic study in rats; type: in vivo, rat
Procedure: Male SD rats were allowed free access to food in a controlled environment of 22 ± 2 °C, with a humidity level of 55% ± 5%, and maintained under a 12 h light/dark cycle. In the oral administration groups, E3 was delivered in a 0.5% CMC-Na solution at a dosage of 4 mg/kg body weight. Blood samples were collected by the orbital venous plexus and kept on ice at the following time points: 0.083, 0.167, 0.25, 0.5, 1, 2, 4, 6, 8, 12, and 24 h. E3 formulations (DMSO:PEG400:saline = 10:30:60, v/v) were administered via tail vein (1 mg/kg). Serial blood sampling (0.033, 0.083, 0.167, 0.333, 0.5, 1, 2, 4, 8, 12, and 24 h post-dose) yielded plasma via centrifugation (3000 r/min, 10 min, 4 °C), stored at −80 °C until PK analysis using DAS 3.2.8 (noncompartmental analysis model).
The analyte E3 and IS were dissolved in DMSO to generate the stock solutions. The working calibration of E3 was gradient-diluted with MeOH/H2O (1:1, v/v). Three microliters of working solutions were spiked with 27 μL of the blank rat plasma to establish the calibration standards. The final concentrations of the standard samples were 1, 2, 5, 10, 50, 250, 500, and 1000 ng/mL. Quality control samples (3/100/800 ng/mL) were prepared using identical protein precipitation protocols. Briefly, 30 μL calibrators and biological matrices were mixed with 450 μL stop solution, vortexed (5 min), and centrifuged (18,000× g, 10 min, 4 °C). Processed supernatants (2 μL injection volume) were subjected to LC-MS/MS analysis.
The analysis was conducted by an Xevo TQ-S Cronos Triple Quadrupole Mass Spectrometer coupled with an ACQUITY UPLC (Waters Corp, Milford, MA, USA). The chromatographic separation was conducted in an ACQUITY UPLC BEH C18 1.7 µm column (Waters, Milford, MA, USA) at 40 °C with a flow rate of 0.4 mL/min. The mobile phases were 0.1% (v/v) formic acid in water (A) and pure ACN (B). […] An electrospray ionization (ESI) source with multiple–reaction monitoring (MRM) in positive–ion mode was employed to quantify the analytes with the transitions of m/z 385.11 > 244.19 and m/z 271.136 > 91.01 for E3 and IS, respectively. The optimized cone voltage is 10 V and 24 V for E3 and IS, respectively. The collision energy is 12 V and 32 V for E3 and IS, respectively. MassLynx v4.2 (Waters Corp, Milford, MA, USA) was used for data acquisition and analysis.

[2] = tested on: rat hyponatremia model caused by SIADH; test: Rat hyponatremia model caused by SIADH (dDAVP); type: in vivo
Procedure: The protocol for dDAVP-induced hyponatremia was adapted from a previous study, with tolvaptan chosen as the positive control. Preliminary experiments determined the dose of dDAVP (0.25 ng/h). Under isoflurane anesthesia, a 0.5 μg/mL dDAVP solution was injected subcutaneously using an osmotic minipump (ALZET 2002, Cupertino, CA, USA; 200 μL, low rate of 0.5 μL/h for […]). Rats were housed individually in metabolic cages to collect urine. Before using the pump, they were given 62.5 mL/d 1.0 kcal/mL of liquid food. After pump implantation, the rats received 40 mL of 2.1 kcal/mL of liquid feed daily. The rats were divided into five groups: control group (sham operation), model group (0.5% poloxamer, solvent), 4 mg/kg tolvaptan group, 4 mg/kg E3 group, and 20 mg/kg E3 group. E3 was administered orally every 8 h, while tolvaptan was given intragastrically once daily. At the end of the experiment, the rats were sacrificed.

[3] = molecular target: T1, UT-B (Mus musculus, UniProt Q8VHL0); test: Erythrocyte lysis assay for UT-B inhibition, mouse erythrocytes; type: cell-based
T1 construct: endogenous in cells; host or cells: erythrocytes from wild-type C57BL/6 mice
T1 sequence (Q8VHL0 1-384): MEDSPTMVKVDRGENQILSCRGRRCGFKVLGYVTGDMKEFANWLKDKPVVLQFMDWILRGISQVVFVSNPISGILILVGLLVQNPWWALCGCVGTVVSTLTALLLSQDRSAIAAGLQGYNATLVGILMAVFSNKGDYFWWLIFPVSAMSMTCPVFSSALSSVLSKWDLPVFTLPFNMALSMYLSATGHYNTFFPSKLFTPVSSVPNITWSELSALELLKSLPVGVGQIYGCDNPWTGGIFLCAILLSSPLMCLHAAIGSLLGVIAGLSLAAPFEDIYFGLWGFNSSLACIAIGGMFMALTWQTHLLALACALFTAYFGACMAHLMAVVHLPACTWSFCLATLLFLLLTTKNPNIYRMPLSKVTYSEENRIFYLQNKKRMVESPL
Procedure: The erythrocyte lysis assay was modified from a method described previously. Erythrocytes obtained from veins were diluted to a hematocrit value of 2% in hyperosmolar PBS containing 1.25 mol/L urea and 5 mmol/L glucose and incubated at r.t. for 2 h. Then, 99 μL erythrocyte suspension from a reservoir was added to each well of a 96-well round-bottom microplate, then 1 μL of the testing compound (500, 125, 31.25, 7.81, 1.95, 0.488, 0.122, 0.031, 0.0076 μmol/L dissolved in DMSO) was added to erythrocyte suspension and shook it up with microoscillator for 1 min. Following 5 min incubation, 20 μL erythrocyte suspension was transferred into 96-well black microplates preloaded with 180 μL isotonic PBS (10 mM, urea-free). Erythrocyte lysis was monitored at 710 nm optical density (OD710) for 6 min, with lysis rates calculated using control values from the same plate as Equation (1):Lysis (%) = 100 × (Aneg − Atest)/(Aneg − Apos)(1) where Atest is the absorbance value from the test well, Aneg is from a negative no-lysis control well, and Apos is from a positive full-lysis control.

[4] = male, SD, rat, plasma, iv, 1 mg/kg, single i.v. 1 mg/kg, n = 5
[5] = male, SD, rat, plasma, iv, single i.v. 1 mg/kg, n = 5
[6] = male, SD, rat, plasma, po, 4 mg/kg, single p.o. 4 mg/kg, n = 5
[7] = male, SD, rat, plasma, po, single p.o. 4 mg/kg, n = 5
[8] = SIADH rats, E3 4 or 20 mg/kg every 8 h, tolvaptan 4 mg/kg once daily, vs model rats

For `CC(=O)c1ccc(C(=O)Nc2cccc(NS(=O)(=O)c3ccccc3)c2)o1` [Compound E3, 5-acetyl-N-(3-(phenylsulfonamido)phenyl)furan-2-carboxamide], the “plasma concentration within 24 h” value ([1]; after intragastric gavage administration) was “less than 2 ng/mL”, the MRT [1, 4] was 1.1 h and the half-life [1, 4] was 1.9 h. It also gave an AUC(0-inf) [1, 5] of 1.12 µg·h/mL, an AUC(0-t) [1, 5] of 1.12 µg·h/mL and a Cmax ([1]; male, SD, rat, plasma, iv, single i.v. 1 mg/kg, n = 5, read-out: C max) of 2.54 µg/mL. The bioavailability ([1]; male, SD, rat, plasma, oral, p.o. 4 mg/kg vs i.v. 1 mg/kg, read-out: F (oral bioavailability)) was 21.1%, the MRT [1, 6] was ~6.1 h and the Tmax [1, 6] was ≤ 2 h. For the same compound, the half-life [1, 6] was ~4.9 h, the Cmax ([1]; male, SD, rat, plasma, po, p.o. 4 mg/kg, conversion of 170.3 ng/mL, read-out: Cmax in molar units) was 0.443 µM and the AUC(0-inf) [1, 7] was 0.943 µg·h/mL. For the same compound, the AUC(0-t) [1, 7] was 0.919 µg·h/mL, the CL/F [1, 7] was 4.2 L/h/kg and the Cmax ([1]; male, SD, rat, plasma, po, single p.o. 4 mg/kg, n = 5, read-out: C max) was 0.17 µg/mL. For the same compound, the “V (V/F row; V for the i.v. group)” value ([1]; single i.v. 1 mg/kg, n = 5) was 2.5 L/kg, the V/F ([1]; single p.o. 4 mg/kg, n = 5) was 30.1 L/kg and the “hyponatremia in SIADH rats” value ([2]; E3 4 or 20 mg/kg orally every 8 h, tolvaptan 4 mg/kg once daily, vs model) was “significantly alleviated”. For the same compound, the serum osmolality [2, 8] was “significantly increased”, the serum sodium concentration [2, 8] was “significantly increased” and the blood urea levels ([2]; SIADH rats, between experimental groups before and after treatment) was “no significant difference”. The “H&E staining of kidney and liver” value ([2]; SIADH rats, except dilatation of collecting ducts) was “normal tissue structures”, the “maximum inhibition rate, mouse cells” value ([3]; erythrocyte lysis assay) was “approximately 100%” and the IC50 ([3]; erythrocyte lysis model, mouse, n = 3, means, read-out: IC50 (μM) Mouse) was 0.05 µM. It also gave an IC50 ([3]; red blood cell lysis assay, read-out: IC50 for UT-B-promoted urea transport, mice) of 0.0477 µM.
